Laboratory results reported in the NIST ThermoML archive (doi:10.1021/je5008394).

Conditions: dynamic light scattering

COC(C)(C)C [2-methoxy-2-methylpropane]
thermal diffusivity [m2/s]
Conditions	Gas	Liquid
303.15 K, 101.33 kPa	–	6.4e-08
303.15 K, 1500 kPa	–	6.66e-08
303.15 K, 2500 kPa	–	6.7e-08
303.15 K, 4000 kPa	–	6.75e-08
303.15 K, 5500 kPa	–	6.79e-08
303.15 K, 7000 kPa	–	6.81e-08
303.15 K, 8500 kPa	–	6.83e-08
303.15 K, 10000 kPa	–	6.85e-08
313.15 K, 101.33 kPa	–	6.17e-08
318.15 K, 1500 kPa	–	6.29e-08
318.15 K, 2500 kPa	–	6.32e-08
318.15 K, 4000 kPa	–	6.37e-08
318.15 K, 5500 kPa	–	6.4e-08
318.15 K, 7000 kPa	–	6.44e-08
318.15 K, 8500 kPa	–	6.47e-08
318.15 K, 10000 kPa	–	6.49e-08
323.15 K, 101.33 kPa	–	5.87e-08
333.15 K, 101.33 kPa	–	5.7e-08
333.15 K, 1500 kPa	–	5.94e-08
333.15 K, 2500 kPa	–	5.97e-08
333.15 K, 4000 kPa	–	6e-08
333.15 K, 5500 kPa	–	6.05e-08
333.15 K, 7000 kPa	–	6.09e-08
333.15 K, 8500 kPa	–	6.15e-08
333.15 K, 10000 kPa	–	6.21e-08
343.15 K, 101.33 kPa	–	5.42e-08
348.15 K, 1500 kPa	–	5.62e-08
348.15 K, 2500 kPa	–	5.63e-08
348.15 K, 4000 kPa	–	5.68e-08
348.15 K, 5500 kPa	–	5.72e-08
348.15 K, 7000 kPa	–	5.78e-08
348.15 K, 8500 kPa	–	5.85e-08
348.15 K, 10000 kPa	–	5.92e-08
353.15 K, 101.33 kPa	–	5.26e-08
363.15 K, 101.33 kPa	–	5.05e-08
363.15 K, 1500 kPa	–	5.33e-08
363.15 K, 2500 kPa	–	5.34e-08
363.15 K, 4000 kPa	–	5.38e-08
363.15 K, 5500 kPa	–	5.43e-08
363.15 K, 7000 kPa	–	5.5e-08
363.15 K, 8500 kPa	–	5.57e-08
363.15 K, 10000 kPa	–	5.68e-08
373.15 K, 101.33 kPa	–	4.83e-08
378.15 K, 1500 kPa	–	5.06e-08
378.15 K, 2500 kPa	–	5.07e-08
378.15 K, 4000 kPa	–	5.1e-08
378.15 K, 5500 kPa	–	5.15e-08
378.15 K, 7000 kPa	–	5.23e-08
378.15 K, 8500 kPa	–	5.32e-08
378.15 K, 10000 kPa	–	5.44e-08
383.15 K, 101.33 kPa	–	4.72e-08
393.15 K, 101.33 kPa	–	4.64e-08
393.15 K, 1500 kPa	–	4.83e-08
393.15 K, 2500 kPa	–	4.83e-08
393.15 K, 4000 kPa	–	4.86e-08
393.15 K, 5500 kPa	–	4.92e-08
393.15 K, 7000 kPa	–	4.99e-08
393.15 K, 8500 kPa	–	5.09e-08
393.15 K, 10000 kPa	–	5.21e-08
403.15 K, 101.33 kPa	–	4.55e-08
403.15 K, 1500 kPa	–	4.68e-08
403.15 K, 2500 kPa	–	4.69e-08
403.15 K, 4000 kPa	–	4.71e-08
403.15 K, 5500 kPa	–	4.77e-08
403.15 K, 7000 kPa	–	4.85e-08
403.15 K, 8500 kPa	–	4.95e-08
403.15 K, 10000 kPa	–	5.08e-08
413.1 K, 1500 kPa	–	4.54e-08
413.1 K, 2500 kPa	–	4.55e-08
413.1 K, 4000 kPa	–	4.58e-08
413.1 K, 5500 kPa	–	4.64e-08
413.1 K, 7000 kPa	–	4.72e-08
413.1 K, 8500 kPa	–	4.82e-08
413.1 K, 10000 kPa	–	4.95e-08
413.15 K, 101.33 kPa	–	4.48e-08
423.15 K, 101.33 kPa	–	4.38e-08
423.15 K, 1500 kPa	–	4.42e-08
423.15 K, 2500 kPa	–	4.43e-08
423.15 K, 4000 kPa	–	4.46e-08
423.15 K, 5500 kPa	–	4.51e-08
423.15 K, 7000 kPa	–	4.59e-08
423.15 K, 8500 kPa	–	4.7e-08
423.15 K, 10000 kPa	–	4.83e-08
433.15 K, 101.33 kPa	–	4.31e-08
433.15 K, 1500 kPa	–	4.32e-08
433.15 K, 2500 kPa	–	4.32e-08
433.15 K, 4000 kPa	–	4.36e-08
433.15 K, 5500 kPa	–	4.41e-08
433.15 K, 7000 kPa	–	4.49e-08
433.15 K, 8500 kPa	–	4.59e-08
433.15 K, 10000 kPa	–	4.72e-08
443.15 K, 101.33 kPa	–	4.18e-08
443.15 K, 2500 kPa	–	4.23e-08
443.15 K, 4000 kPa	–	4.26e-08
443.15 K, 5500 kPa	–	4.31e-08
443.15 K, 7000 kPa	–	4.39e-08
443.15 K, 8500 kPa	–	4.49e-08
443.15 K, 10000 kPa	–	4.61e-08
453.15 K, 101.33 kPa	2.36e-07	4.05e-08
453.15 K, 2500 kPa	–	4.15e-08
453.15 K, 4000 kPa	–	4.18e-08
453.15 K, 5500 kPa	–	4.23e-08
453.15 K, 7000 kPa	–	4.3e-08
453.15 K, 8500 kPa	–	4.4e-08
453.15 K, 10000 kPa	–	4.51e-08
455.15 K, 101.33 kPa	2.06e-07	–
457.15 K, 101.33 kPa	1.87e-07	–
458.15 K, 101.33 kPa	–	3.91e-08
458.15 K, 2500 kPa	–	4.11e-08
458.15 K, 4000 kPa	–	4.15e-08
458.15 K, 5500 kPa	–	4.2e-08
458.15 K, 7000 kPa	–	4.27e-08
458.15 K, 8500 kPa	–	4.36e-08
458.15 K, 10000 kPa	–	4.47e-08
459.15 K, 101.33 kPa	1.72e-07	–
461.15 K, 101.33 kPa	1.62e-07	–
463.15 K, 101.33 kPa	1.54e-07	3.86e-08
463.15 K, 2500 kPa	–	4.08e-08
463.15 K, 4000 kPa	–	4.11e-08
463.15 K, 5500 kPa	–	4.16e-08
463.15 K, 7000 kPa	–	4.23e-08
463.15 K, 8500 kPa	–	4.32e-08
463.15 K, 10000 kPa	–	4.43e-08
465.15 K, 101.33 kPa	1.47e-07	–
467.15 K, 101.33 kPa	1.38e-07	–
468.15 K, 101.33 kPa	–	3.66e-08
468.15 K, 2500 kPa	–	4.05e-08
468.15 K, 4000 kPa	–	4.09e-08
468.15 K, 5500 kPa	–	4.14e-08
468.15 K, 7000 kPa	–	4.2e-08
468.15 K, 8500 kPa	–	4.28e-08
468.15 K, 10000 kPa	–	4.38e-08
469.15 K, 101.33 kPa	1.31e-07	–
471.15 K, 101.33 kPa	1.22e-07	–
473.15 K, 101.33 kPa	1.14e-07	3.55e-08
473.15 K, 2500 kPa	–	4.02e-08
473.15 K, 4000 kPa	–	4.06e-08
473.15 K, 5500 kPa	–	4.11e-08
473.15 K, 7000 kPa	–	4.18e-08
473.15 K, 8500 kPa	–	4.25e-08
473.15 K, 10000 kPa	–	4.34e-08
475.15 K, 101.33 kPa	1.05e-07	3.47e-08
477.15 K, 101.33 kPa	9.7e-08	3.36e-08
479.15 K, 101.33 kPa	8.8e-08	3.36e-08
481.15 K, 101.33 kPa	7.8e-08	3.3e-08
483.15 K, 101.33 kPa	7e-08	3.22e-08
483.15 K, 4000 kPa	–	4.02e-08
483.15 K, 5500 kPa	–	4.07e-08
483.15 K, 7000 kPa	–	4.12e-08
483.15 K, 8500 kPa	–	4.19e-08
483.15 K, 10000 kPa	–	4.27e-08
485.15 K, 101.33 kPa	6.2e-08	3.07e-08
487.15 K, 101.33 kPa	5.6e-08	3.02e-08
489.15 K, 101.33 kPa	5e-08	2.95e-08
491.15 K, 101.33 kPa	4.3e-08	2.81e-08
493.15 K, 101.33 kPa	3.1e-08	2.73e-08
493.15 K, 4000 kPa	–	3.99e-08
493.15 K, 5500 kPa	–	4.03e-08
493.15 K, 7000 kPa	–	4.08e-08
493.15 K, 8500 kPa	–	4.14e-08
493.15 K, 10000 kPa	–	4.21e-08
